Assay results from PMC5238714 (Biochemistry, 2016).

Experiments:
[1] = molecular target: GARFTase; conditions: read-out: reported Ki with GARFTase; in vitro assays; cited from earlier work
[2] = molecular target: T1, human GARFTase (formyltransferase domain) (Homo sapiens, UniProt P22102); assay: GAR transformylase; type: biochemical; conditions: ratio of Ki values
T1 sequence (P22102 810-1010 limits assumed): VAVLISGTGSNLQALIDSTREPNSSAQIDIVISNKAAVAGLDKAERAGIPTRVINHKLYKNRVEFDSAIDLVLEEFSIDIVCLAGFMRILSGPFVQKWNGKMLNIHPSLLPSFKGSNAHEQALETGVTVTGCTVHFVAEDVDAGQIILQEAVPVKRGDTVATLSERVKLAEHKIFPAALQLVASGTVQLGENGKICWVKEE

Row | fold weaker GARFTase inhibition than AGF94 and AGF145 [2] | SMILES | Ki [1] [nM]
1 | – | Nc1nc(N)c(CCCC(C(=O)C(F)(F)F)c2ccc(C(=O)N[C@@H](CCC(=O)O)C(=O)O)cc2)c(=O)[nH]1 (some centres unmarked) [10-trifluoroacetyl antifolate, 10-(trifluoroacetyl)-5,10-dideazaacyclic-5,6,7,8-tetrahydrofolic acid] | 15
2 | roughly 1.5 fold | Nc1nc2[nH]c(CCCCCCCC(=O)N[C@@H](CCC(=O)O)C(=O)O)cc2c(=O)[nH]1 [AGF147] | –
